*1 amine or outer side, *2 acyl side, *3 side chain or, on linkers, in order; H or OH if unused. Where a SMILES comes first, the peptide text is derived from it. Bridges are numbered along the chain shown (N, C = ends). Roman numbers before positions name the chains, in order. [ ]: non-standard residue; d: D form. Actinocin(1to9) = Cc1c2oc3c(C)ccc(C(=O)[*:2])c3nc-2c(C(=O)[*:1])c(N)c1=O; NMeV = CN[C@H](C(=O)O)C(C)C; Sar = CNCC(=O)O

For the experiment, the system named is A2780. Description: Cytotoxicity against human A2780 cells. It counts as functional, cell-based.
`Cc1c2oc3c(C)ccc(C(=O)N[C@@H]4C(=O)N[C@H](C(C)C)C(=O)N5CCC[C@H]5C(=O)N(C)CC(=O)N(C)[C@@H](C(C)C)C(=O)O[C@@H]4C)c3nc-2c(C(=O)N[C@@H]2C(=O)N[C@H](C(C)C)C(=O)N3CCC[C@H]3C(=O)N(C)CC(=O)N(C)[C@@H](C(C)C)C(=O)O[C@@H]2C)c(N)c1=O` [DACTINOMYCIN] (I: T[dV]P[Sar][NMeV] / II: T[dV]P[Sar][NMeV]; ester I:1-I:C, II:1-II:C; linker I:N-II:N via Actinocin(1to9)) showed an IC50 of 0.0008 µM. This lies in the sub-nanomolar range. For the compound `C=C(C)C(=O)O[C@H]1C[C@H](C)[C@@H](OC(C)=O)CC[C@@]2(C)O[C@@H]2[C@H]2OC(=O)C(COC(C)=O)=C12` [GLAUCOLIDE K], the IC50 worked out at 5.8 µM. Against the preceding compound, the IC50 is about 7200-fold higher.

As to `C=C(C)C(=O)O[C@H]1C[C@H](C)[C@@H](OC(C)=O)CC[C@@]2(C)O[C@@H]2[C@H]2OC(=O)C(CO)=C12` [GLAUCOLIDE L], the IC50 was 24.5 µM. This IC50 lies about 4.2-fold higher than the previous one. On to `C=C(C)C(=O)O[C@H]1C[C@H](C)[C@@H](OC(C)=O)CC[C@@](C)(O)/C=C2/OC(=O)C(COC(C)=O)=C21` [GLAUCOLIDE M], for which the IC50 was determined as 3.3 µM.

Usually IC50 stands for the concentration that inhibits the measured activity by half.

(Values after ChEMBL document CHEMBL1141804, “Cytotoxic sesquiterpene lactones from Vernonia pachyclada from the Madagascar rainforest” (J Nat Prod, 2005).)
